SMILES | melting point [°C]
CCOC(=O)C(C)(C(=O)OCC)c1cccc(C(=O)c2ccccc2)c1[N+](=O)[O-] | 102 to 104
N[C@@H](Cc1ccc(F)cc1)[C@H](O)c1ccc(F)cc1 (racemic) | 66 to 67
CCNC(=S)N1CCN(c2ccc3ccccc3n2)CC1 | 193 to 195
Clc1cc(N2CCC3(CC2)OCCO3)nc(N2CCC3(CC2)OCCO3)n1 | 130 to 131
CN(C)C(=S)Oc1ccccc1C#N | 112
O=C(O)CCCCCCCCCCc1ccco1 | 40 to 41
CC(C)C(Cl)C(=O)Nc1c(C(=O)CC(=O)Nc2nccs2)cccc1C(F)(F)F (configuration not stated) | 186
Nc1nc(=O)n(C(=S)Oc2ccccc2)cc1F | 113 to 116
CCCOc1ccc(C(=O)CC(=O)C(C)(C)C)cc1OC | 55.5 to 56.7
O=C(CCN1CCNC1=O)N1CCC(C2c3ncc(Br)cc3CCc3cc(Cl)cc(Br)c32)CC1 (single isomer, unassigned; (+)) | 202 to 203
O=C(O)C(=CNc1ccc(O)c(=O)cc1)C(=O)O | 175 to 176
COC(=O)[C@]1(C)Oc2ccccc2NC1=O | 153 to 157
COC(=O)C(=CC(=CN(C)C)c1ccccc1[N+](=O)[O-])[N+](=O)[O-] | 211 to 214
CS(=O)(=O)N1CCN([C@](O)(CNC(=O)c2ccc(OCC#CCO)cc2)C(N)=O)CC1 | 162
N#Cc1ccc(N2C(=O)N(CCCC(=O)O)C3(CCOCC3)C2=O)cc1C(F)(F)F | 151 to 152
CC(C)(C)OC(=O)N[C@@H](COS(C)(=O)=O)Cc1ccccc1 | 119 to 120
CC(C)CCNc1nc(N2CCCCC2)nc2c(NCCC(C)C)nc(N3CCCCC3)nc12 | 192 to 194
COc1ccc2c(c1)CC1=C2NN(C(=O)OC(C)(C)C)C1c1cccs1 (configuration not stated) | 163 to 165
CC1(C)CCC(C)(C)c2cc3c(cc21)OCC3(C)c1cc(C=C(Br)Br)cs1 (configuration not stated) | 124
CC(C)n1cc(C(=O)O)c2ccc(Cl)cc21 | 206 to 208
C#C[C@@](C)(O)CCC1=C(C)C(=O)C(C)=C(C)C1=O | 80 to 82
COc1cc2c(cc1OC)CN(NC1=NCCN1)C2 | 191 to 192
Cc1cc2c(s1)Nc1ccccc1NC2=S | 259 to 260
COc1ccc(CN(C)CCCSc2ccc(NC(=O)c3cccc4c(=O)c5cccc(SC)c5[nH]c34)cc2)cc1OC | 142
CN1CCC(NC2=Nc3ccccc3Cn3nnnc32)CC1 | 112 to 114

SMILES | melting point [°C]
COC1O[C@H](CC#N)[C@H](OCc2ccccc2)[C@H]1O (some centres not stated) | 59 to 60
CC1=C(CCC(C)CCC(=O)O)C(=O)c2ccccc2C1=O (configuration not stated) | 58 to 61
CCn1c(=O)c(C)cc2cnc(Nc3ccc(N4CCN(C)CC4)cc3)nc21 | 198 to 200
O=C1CCCN1C(c1ccccc1Cl)N1CCN(c2ncccn2)CC1 (configuration not stated) | 166 to 177
COC(=O)c1cc2cccc(OC)c2cc1O | 182
COC1CCC2C3CCC4CC(C)(O)CCC4(C)C3CCC12C (configuration not stated) | 151 to 154
Cc1cccc(C)c1NC(=O)C(Cl)Br (configuration not stated) | 148 to 149
Cc1nc(-c2cccc(CNc3ccccc3)c2)no1 | 75 to 76
CN(C)C=Nc1cnc(-c2cccc(CO)c2)nc1 | 105 to 106
O=C(/C=C/c1ccc2c(c1)OCCO2)CC(=O)/C=C/c1ccc2c(c1)OCCO2 | 184 to 187
O=C(O)CCC(Cc1ccccc1Cl)(C(=O)C=Cc1ccc(Cl)cc1)c1ccccc1 (configuration not stated) | 184 to 187
COc1ccc2c(c1OC)C(=O)c1c-2c(Cl)nc2ccc(Cl)cc12 | 149 to 151
CN(C)c1nc(N(C)Cc2ccc(O)cc2)nc(N(C)Cc2ccccc2O)n1 | 80 to 81
N#Cc1cc2cc(Br)ccc2nc1Cl | 228 to 230
O=C(O)Cc1ccc(OCCNCC(O)c2ccccc2)cc1 (configuration not stated) | 183 to 184
O=C(NCCO)c1cncc(-c2cccc3cc(Cc4cc(F)cc(Cl)c4)sc23)c1 | 126 to 127
CCOC(=O)Nc1cc(OCC)c(Br)cc1F | 92.5 to 95
OC(Cc1ccc2ccccc2n1)C(Cl)(Cl)Cl (configuration not stated) | 156 to 158
CC(=O)c1cccc2cc3cccc(C(C)=O)c3cc12 | 178 to 181
O=C1CC(Br)C(=O)N1c1ccc(F)cc1 (configuration not stated) | 154
C=CCn1c(C)c(C)c2cnnc(OCc3ccccc3)c21 | 115 to 116
Cc1c(NC(=O)CC(C)(C)C)cc2c(c1C)OC(C)(C)C2c1ccc(C=O)cc1 (configuration not stated) | 169 to 170
CCc1nn2ccc3c(c2c1CC#N)CCO3 | 179 to 180
CC1OC(=O)C(c2ccccc2)OC1=O (configuration not stated) | 153 to 156
CS(=O)(=O)Nc1ccc(CCCOCCCCCCNCC(O)c2cc(O)cc(O)c2)cc1 (configuration not stated) | 66 to 69

Now from value to compound:

melting point [°C] | SMILES
> 260 | Cc1ccc(C)n1-c1ccc2ccc3[nH]c(=O)c(=O)n(CC(=O)Nc4ccccc4)c3c2c1
106 to 111 | C[C@H](c1ccccc1)N(CC(=O)OC(C)(C)C)S(=O)(=O)c1ccc2c(Cl)cnc(NC(=N)N)c2c1
145 to 147 | COc1ccc(-c2cc(F)ccc2C#N)cc1
253 to 254 | O=C(O)c1ccc(-c2cnc(-c3ccc(C(F)(F)F)cc3)o2)cc1
195 to 197 | Cc1nccn1-c1nc(-c2ccc(Cl)cc2)c(CCC(=O)O)o1
165 to 167 | CC(C)Sc1c(-c2ccc(S(C)(=O)=O)cc2)cnn(CC(F)(F)F)c1=O
190 to 192 | CS(=O)(=O)c1ccc(-n2nc(C(F)(F)F)cc2-c2ccc(-c3ncco3)cc2)cc1
142 | COn1c(-c2ccccc2)nc2ccc(Cn3ccnc3)cc21
223 to 225 | O=c1[nH]c(=Cc2ccc(OCc3ccccc3)cn2)c(=O)[nH]c1=Cc1ccccc1
159 to 161 | O=C(Nc1ccc(Oc2ccccc2)cc1)N1CCN(c2ccnc3cc(Cl)ccc23)CC1
280 | COc1ccc2c(C(F)(F)F)cc(=O)[nH]c2c1NC(C)=O
174 to 176 | O=C(c1ccc(-c2ccccc2)cc1)c1ccc([N+](=O)[O-])cc1
133 | Cc1ncc([N+](=O)[O-])cc1Nc1nccc(-c2ccccc2)n1
262 to 265 | O=S(=O)(c1ccc(O)cc1)N1c2ccc(Br)cc2-c2ccccc2C1c1ccccc1 (configuration not stated)
160 | NS(=O)(=O)c1ccc(C2=NC3(O)c4ccc(Cl)cc4CC3S2)cc1 (configuration not stated)
236 to 237 | CC(C(=O)O)n1cc(-c2ccccc2)c(=O)c(-c2cccc(C(F)(F)F)c2)c1 (configuration not stated)
132 to 135 | CS(=O)(=O)c1ccc(Cl)c(C(=O)Nc2ccc(-n3nc(C(F)(F)F)cc3C3CC3)cc2)c1
111 | COc1ccc2c(c1)C(C(=O)N(Cc1ccc(-n3ccnc3)cc1)c1ccc(C(C)C)cc1)CCC2 (configuration not stated)
210 to 212 | NCc1cccc(Nc2ncnc3[nH]cc(C(=O)c4ccccc4)c23)c1
122 to 124 | COC(=O)CCCc1cc2nc(Cl)ccc2n1S(=O)(=O)c1ccc(-n2cccn2)cc1
134 | Cc1ccc(C2CCCN2S(=O)(=O)c2ccc(F)cc2)c(C)c1 (racemic)
232 to 234 | O=[N+]([O-])c1ccc(NN=C(c2ccccc2)c2ccccc2)c([N+](=O)[O-])c1

From a melting point compilation (Tetko et al.; mined from patent text by program, amines drawn as free bases though some values may be those of a salt)
